Test results reported in ChEMBL document CHEMBL1159093, “Discovery and optimization of RO-85, a novel drug-like, potent, and selective P2X3 receptor antagonist” (Bioorg Med Chem Lett, 2010).

What was measured:
[1] = molecular target: Adrenergic receptor alpha-1 (Rattus norvegicus) (UniProt P15823+P23944+P43140); test: Displacement of [3H]prazosin from alpha1 receptor in rat cerebral cortex at 10 uM after 60 mins by scintillation counting; type: tissue-based
[2] = molecular target: Beta-1 adrenergic receptor (Homo sapiens) (UniProt P08588); test: Displacement of [3H]RX 821002 from human recombinant beta-1 adrenergic receptor expressed in HEK293 cells at 10 uM after 60 mins by scintillation counting; type: cell-based
[3] = molecular target: Beta-2 adrenergic receptor (Homo sapiens) (UniProt P07550); test: Displacement of [3H](-)CGP 12177 from human recombinant beta2 adrenergic receptor expressed in CHO cells at 10 uM after 120 mins by scintillation counting; type: cell-based
[4] = molecular target: D(4) dopamine receptor (Homo sapiens) (UniProt P21917); test: Displacement of [3H]methyl-spiperone from human recombinant D4.4 receptor expressed in CHO cells at 10 uM after 60 mins by scintillation counting; type: cell-based
Chain of D(4) dopamine receptor (Homo sapiens) (P21917 whole entry): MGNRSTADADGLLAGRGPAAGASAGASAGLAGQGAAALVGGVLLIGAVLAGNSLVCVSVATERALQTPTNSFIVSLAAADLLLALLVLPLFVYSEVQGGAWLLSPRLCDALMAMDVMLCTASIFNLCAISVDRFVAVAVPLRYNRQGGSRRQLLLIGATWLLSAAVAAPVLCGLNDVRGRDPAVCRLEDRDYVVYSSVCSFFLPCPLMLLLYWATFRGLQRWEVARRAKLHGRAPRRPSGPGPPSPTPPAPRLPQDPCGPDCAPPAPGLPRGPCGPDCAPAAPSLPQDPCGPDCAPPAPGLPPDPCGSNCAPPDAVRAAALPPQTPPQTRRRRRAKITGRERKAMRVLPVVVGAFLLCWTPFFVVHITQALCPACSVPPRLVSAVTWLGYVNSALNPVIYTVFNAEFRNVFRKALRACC

Rattus norvegicus [5] = organism: Rattus norvegicus; test: Displacement of [3H]TCP from PCP receptor in rat cerebral cortex at 10 uM after 120 mins by scintillation counting; type: tissue-based
[6] = molecular target: Histamine H1 receptor (Homo sapiens) (UniProt P35367); test: Displacement of [3H]pyrilamine from human recombinant histamine H1 receptor expressed in HEK293 cells at 10 uM after 60 mins by scintillation counting; type: cell-based
[7] = molecular target: Histamine H2 receptor (Homo sapiens) (UniProt P25021); test: Displacement of [125I]APT from human recombinant histamine H2 receptor expressed in CHO cells at 10 uM after 120 mins by scintillation counting; type: cell-based
[8] = molecular target: Muscarinic acetylcholine receptor M1 (Homo sapiens) (UniProt P11229); test: Displacement of [3H]pirenzepine from human recombinant muscarinic M1 receptor expressed in CHO cells at 10 uM after 60 mins by scintillation counting; type: cell-based
Chain of Muscarinic acetylcholine receptor M1 (Homo sapiens) (P11229 whole entry): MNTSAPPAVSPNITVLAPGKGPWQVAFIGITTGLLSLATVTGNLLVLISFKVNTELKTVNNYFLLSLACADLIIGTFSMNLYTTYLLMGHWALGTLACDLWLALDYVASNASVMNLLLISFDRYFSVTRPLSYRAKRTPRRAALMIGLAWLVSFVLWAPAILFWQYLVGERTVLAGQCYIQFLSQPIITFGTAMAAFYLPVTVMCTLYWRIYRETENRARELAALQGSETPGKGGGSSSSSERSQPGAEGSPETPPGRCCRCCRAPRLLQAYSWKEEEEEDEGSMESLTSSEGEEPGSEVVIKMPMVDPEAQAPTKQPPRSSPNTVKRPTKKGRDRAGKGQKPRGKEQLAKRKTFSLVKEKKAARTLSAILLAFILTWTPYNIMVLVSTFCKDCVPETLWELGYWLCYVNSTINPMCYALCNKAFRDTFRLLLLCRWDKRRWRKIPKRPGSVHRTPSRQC

[9] = molecular target: Muscarinic acetylcholine receptor M3 (Homo sapiens) (UniProt P20309); test: Displacement of [3H]4-DAMP from human recombinant muscarinic M3 receptor expressed in CHO cells at 10 uM after 60 mins by scintillation counting; type: cell-based
Rattus norvegicus [10] = organism: Rattus norvegicus; test: Displacement of [3H]a,b-MeATP from P2X receptor in rat urinary bladder at 10 uM after 120 mins by scintillation counting
Rattus norvegicus [11] = organism: Rattus norvegicus; test: Displacement of [35S]dATPaS from P2Y receptor in rat cerebral cortex at 10 uM after 60 mins by scintillation counting; type: tissue-based
[12] = molecular target: 5-hydroxytryptamine receptor 1B (Rattus norvegicus) (UniProt P28564); test: Displacement of [125I]CYP from 5HT1B receptor in rat cerebral cortex at 10 uM after 120 mins by scintillation counting in presence of 30 uM isoproterenol; type: tissue-based
[13] = molecular target: 5-hydroxytryptamine receptor 3A (Homo sapiens) (UniProt P46098); test: Displacement of [3H]BRL43694 from human recombinant 5HT3 receptor expressed in CHO cells at 10 uM after 120 mins by scintillation counting; type: cell-based
[14] = molecular target: 5-hydroxytryptamine receptor 5A (Homo sapiens) (UniProt P47898); test: Displacement of [3H]LSD from human recombinant 5HT5A receptor expressed in HEK293 cells at 10 uM after 120 mins by scintillation counting; type: cell-based
Rattus norvegicus [15] = organism: Rattus norvegicus; test: Displacement of [3H]DTG from sigma opioid receptor in rat cerebral cortex at 10 uM after 120 mins by scintillation counting; type: tissue-based
[16] = molecular target: Somatostatin receptor (Mus musculus) (UniProt P30935+O08858+P30875+P30873+P49660); test: Displacement of [125I]Tyr11-somatostatin-14 from somatostatin in mouse AtT-20 cells at 10 uM after 60 mins by scintillation counting; type: cell-based; conditions: AtT20
[17] = molecular target: Pituitary adenylate cyclase-activating polypeptide type I receptor (Homo sapiens) (UniProt P41586); test: Displacement of [125I]PACAP1-27 from human recombinant PAC1 receptor expressed in CHO cells at 10 uM after 120 mins by scintillation counting; type: cell-based
Chain of Pituitary adenylate cyclase-activating polypeptide type I receptor (Homo sapiens) (P41586 21-468 limits assumed): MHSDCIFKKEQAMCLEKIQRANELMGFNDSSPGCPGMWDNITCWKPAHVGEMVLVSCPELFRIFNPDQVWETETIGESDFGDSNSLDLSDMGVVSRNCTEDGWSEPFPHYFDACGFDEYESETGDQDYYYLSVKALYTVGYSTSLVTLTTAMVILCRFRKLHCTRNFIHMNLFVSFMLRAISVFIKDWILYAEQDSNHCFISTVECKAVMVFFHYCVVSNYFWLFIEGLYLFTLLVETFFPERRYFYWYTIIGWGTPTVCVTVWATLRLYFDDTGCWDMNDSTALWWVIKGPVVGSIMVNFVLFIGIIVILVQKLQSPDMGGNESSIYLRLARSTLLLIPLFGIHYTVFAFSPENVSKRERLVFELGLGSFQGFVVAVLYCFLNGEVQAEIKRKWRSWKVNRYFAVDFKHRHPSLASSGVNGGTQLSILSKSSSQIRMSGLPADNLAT

[18] = molecular target: Vasoactive intestinal polypeptide receptor 1 (Homo sapiens) (UniProt P32241); test: Displacement of [125I]VIP from human recombinant VPAC1 receptor expressed in CHO cells at 10 uM after 60 mins by scintillation counting; type: cell-based
Chain of Vasoactive intestinal polypeptide receptor 1 (Homo sapiens) (P32241 whole entry): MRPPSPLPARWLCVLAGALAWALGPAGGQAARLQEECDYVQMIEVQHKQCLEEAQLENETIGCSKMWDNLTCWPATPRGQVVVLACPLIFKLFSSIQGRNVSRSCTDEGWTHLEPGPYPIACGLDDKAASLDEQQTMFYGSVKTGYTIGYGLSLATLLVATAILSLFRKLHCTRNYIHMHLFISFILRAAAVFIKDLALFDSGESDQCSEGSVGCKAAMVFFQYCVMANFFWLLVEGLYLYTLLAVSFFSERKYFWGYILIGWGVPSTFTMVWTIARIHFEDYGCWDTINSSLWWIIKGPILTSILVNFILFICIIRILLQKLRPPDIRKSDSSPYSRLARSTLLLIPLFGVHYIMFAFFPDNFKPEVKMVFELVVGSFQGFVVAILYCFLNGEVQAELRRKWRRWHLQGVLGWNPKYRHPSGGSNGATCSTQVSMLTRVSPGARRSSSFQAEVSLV

[19] = molecular target: Vasopressin V1a receptor (Homo sapiens) (UniProt P37288); test: Displacement of [3H]AVP from human recombinant vasopressin V1a receptor expressed in CHO cells at 10 uM after 60 mins by scintillation counting; type: cell-based
[20] = molecular target: Peroxisome proliferator-activated receptor gamma (Homo sapiens) (UniProt P37231); test: Displacement of [3H]rosiglitazone from human recombinant PPARgamma receptor expressed in Escherichia coli at 10 uM after 120 mins by scintillation counting
Chain of Peroxisome proliferator-activated receptor gamma (Homo sapiens) (P37231 whole entry): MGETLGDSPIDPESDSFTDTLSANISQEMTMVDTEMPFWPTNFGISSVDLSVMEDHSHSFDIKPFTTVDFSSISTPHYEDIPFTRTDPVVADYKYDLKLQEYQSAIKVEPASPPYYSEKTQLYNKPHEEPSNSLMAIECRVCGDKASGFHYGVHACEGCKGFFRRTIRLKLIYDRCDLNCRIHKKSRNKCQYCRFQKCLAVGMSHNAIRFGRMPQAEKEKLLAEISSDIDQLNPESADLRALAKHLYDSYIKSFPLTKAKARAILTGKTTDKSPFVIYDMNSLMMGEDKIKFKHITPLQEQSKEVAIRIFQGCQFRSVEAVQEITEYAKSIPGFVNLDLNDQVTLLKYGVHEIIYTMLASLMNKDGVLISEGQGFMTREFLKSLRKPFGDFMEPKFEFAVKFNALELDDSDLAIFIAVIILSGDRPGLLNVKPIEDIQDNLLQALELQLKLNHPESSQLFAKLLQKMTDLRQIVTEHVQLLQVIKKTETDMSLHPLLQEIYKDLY

[21] = molecular target: Small conductance calcium-activated potassium channel (Rattus norvegicus) (UniProt P70604+P70606+P70605); test: Displacement of [125I]apamin from SK […] channel in rat cerebral cortex at 10 uM after 60 mins by scintillation counting; type: tissue-based
[22] = molecular target: Sodium-dependent dopamine transporter (Homo sapiens) (UniProt Q01959); test: Displacement of [3H]BTCP from human recombinant DAT expressed in CHO cells at 10 uM after 120 mins by scintillation counting; type: cell-based
Chain of Sodium-dependent dopamine transporter (Homo sapiens) (Q01959 whole entry): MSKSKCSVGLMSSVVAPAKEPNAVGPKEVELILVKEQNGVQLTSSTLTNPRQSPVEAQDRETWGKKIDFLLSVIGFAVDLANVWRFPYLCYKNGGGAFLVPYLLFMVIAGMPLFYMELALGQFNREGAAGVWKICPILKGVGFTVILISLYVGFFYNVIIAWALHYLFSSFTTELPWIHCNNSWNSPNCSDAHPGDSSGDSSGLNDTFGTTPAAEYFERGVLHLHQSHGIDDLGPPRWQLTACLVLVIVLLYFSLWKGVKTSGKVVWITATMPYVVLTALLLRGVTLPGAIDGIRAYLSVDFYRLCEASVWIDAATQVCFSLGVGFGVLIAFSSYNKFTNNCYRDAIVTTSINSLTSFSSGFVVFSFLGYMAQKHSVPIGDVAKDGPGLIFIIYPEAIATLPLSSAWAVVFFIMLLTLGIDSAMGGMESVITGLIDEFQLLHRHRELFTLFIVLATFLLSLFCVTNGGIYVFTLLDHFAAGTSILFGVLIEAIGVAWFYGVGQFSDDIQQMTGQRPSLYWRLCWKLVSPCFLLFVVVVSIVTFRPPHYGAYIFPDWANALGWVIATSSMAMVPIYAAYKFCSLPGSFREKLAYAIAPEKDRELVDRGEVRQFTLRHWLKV

[23] = Half life in po dosed rat; type: ADME, organism-based; conditions: in vivo
P2X purinoceptor 2 = P2X purinoceptor 2 (Homo sapiens, UniProt Q9UBL9); test: Antagonist activity at P2X2 receptor; type: functional
Chain of P2X purinoceptor 2 (Q9UBL9 whole entry): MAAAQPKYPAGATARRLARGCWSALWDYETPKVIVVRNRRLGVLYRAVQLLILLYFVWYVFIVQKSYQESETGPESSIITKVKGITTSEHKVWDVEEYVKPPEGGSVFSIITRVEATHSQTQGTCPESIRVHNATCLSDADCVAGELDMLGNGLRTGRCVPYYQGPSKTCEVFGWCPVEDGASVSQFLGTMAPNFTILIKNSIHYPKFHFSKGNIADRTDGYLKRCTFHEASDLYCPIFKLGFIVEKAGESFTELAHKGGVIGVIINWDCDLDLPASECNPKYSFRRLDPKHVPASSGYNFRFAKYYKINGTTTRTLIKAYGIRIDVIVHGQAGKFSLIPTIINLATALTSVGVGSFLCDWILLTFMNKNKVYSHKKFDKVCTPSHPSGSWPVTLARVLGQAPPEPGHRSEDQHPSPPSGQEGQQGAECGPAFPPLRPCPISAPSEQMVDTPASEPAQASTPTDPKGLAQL

P2X purinoceptor 4 = P2X purinoceptor 4 (Homo sapiens, UniProt Q99571); test: Antagonist activity at P2X4 receptor; type: functional
P2X purinoceptor 7 = P2X purinoceptor 7 (Homo sapiens, UniProt Q99572); test: Antagonist activity at P2X7 receptor; type: functional
[24] = molecular target: Tumor necrosis factor (Homo sapiens) (UniProt P01375); test: Displacement of [125I]TNF-a from TNFalpha in human U937 cells at 10 uM after 120 mins by scintillation counting; type: cell-based; conditions: U-937
Chain of Tumor necrosis factor (Homo sapiens) (P01375 whole entry): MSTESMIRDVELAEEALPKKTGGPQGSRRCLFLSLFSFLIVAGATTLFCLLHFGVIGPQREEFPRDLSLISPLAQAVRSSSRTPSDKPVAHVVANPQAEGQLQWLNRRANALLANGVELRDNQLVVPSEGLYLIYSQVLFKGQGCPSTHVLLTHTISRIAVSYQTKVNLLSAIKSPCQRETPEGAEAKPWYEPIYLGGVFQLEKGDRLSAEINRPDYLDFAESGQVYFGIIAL

[25] = molecular target: Galanin receptor type 2 (Homo sapiens) (UniProt O43603); test: Displacement of [125I]galanin from human recombinant GAL2 receptor expressed in HEK293 cells at 10 uM after 120 mins by scintillation counting; type: cell-based
Chain of Galanin receptor type 2 (Homo sapiens) (O43603 whole entry): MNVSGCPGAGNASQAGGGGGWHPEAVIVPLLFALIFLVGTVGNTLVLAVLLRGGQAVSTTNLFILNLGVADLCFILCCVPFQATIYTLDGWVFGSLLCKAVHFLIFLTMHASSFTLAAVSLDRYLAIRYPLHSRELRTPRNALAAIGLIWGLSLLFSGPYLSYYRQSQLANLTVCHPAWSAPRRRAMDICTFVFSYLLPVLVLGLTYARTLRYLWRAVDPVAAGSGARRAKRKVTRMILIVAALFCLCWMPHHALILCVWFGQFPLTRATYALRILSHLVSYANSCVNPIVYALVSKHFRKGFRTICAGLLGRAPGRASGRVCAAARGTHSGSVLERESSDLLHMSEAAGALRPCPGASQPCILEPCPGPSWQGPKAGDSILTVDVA

[26] = molecular target: Substance-P receptor (Homo sapiens) (UniProt P25103); test: Displacement of [125I]BH-SP from NK1 receptor in human U-373MG cells at 10 uM after 60 mins by scintillation counting; type: cell-based; conditions: U-373MG ATCC
[27] = molecular target: Neuromedin-K receptor (Homo sapiens) (UniProt P29371); test: Displacement of [3H]SR142801 from human recombinant NK3 receptor expressed in CHO cells at 10 uM after 120 mins by scintillation counting; type: cell-based
Chain of Neuromedin-K receptor (Homo sapiens) (P29371 whole entry): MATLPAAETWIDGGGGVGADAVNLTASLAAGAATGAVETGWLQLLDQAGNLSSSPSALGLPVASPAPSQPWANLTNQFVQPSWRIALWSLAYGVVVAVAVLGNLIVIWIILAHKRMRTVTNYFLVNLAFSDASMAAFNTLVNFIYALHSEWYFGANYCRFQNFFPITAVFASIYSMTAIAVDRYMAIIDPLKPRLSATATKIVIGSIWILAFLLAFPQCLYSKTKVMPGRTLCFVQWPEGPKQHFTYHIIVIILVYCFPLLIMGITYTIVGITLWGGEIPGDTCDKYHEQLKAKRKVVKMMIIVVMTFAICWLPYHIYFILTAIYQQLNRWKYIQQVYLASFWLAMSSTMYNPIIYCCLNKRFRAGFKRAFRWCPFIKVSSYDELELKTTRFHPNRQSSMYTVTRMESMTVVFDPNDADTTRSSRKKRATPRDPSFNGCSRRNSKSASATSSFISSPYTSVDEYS

[28] = molecular target: Neuropeptide Y receptor type 2 (Homo sapiens) (UniProt P49146); test: Displacement of [125I]peptideYY from neuropeptide Y2 receptor in human KAN-TS cells at 10 uM after 60 mins by scintillation counting; type: cell-based
[29] = molecular target: Mu-type opioid receptor (Homo sapiens) (UniProt P35372); test: Displacement of [3H]DAMGO from human recombinant mu opioid receptor expressed in HEK293 cells at 10 uM after 120 mins by scintillation counting; type: cell-based
Chain of Mu-type opioid receptor (Homo sapiens) (P35372 whole entry): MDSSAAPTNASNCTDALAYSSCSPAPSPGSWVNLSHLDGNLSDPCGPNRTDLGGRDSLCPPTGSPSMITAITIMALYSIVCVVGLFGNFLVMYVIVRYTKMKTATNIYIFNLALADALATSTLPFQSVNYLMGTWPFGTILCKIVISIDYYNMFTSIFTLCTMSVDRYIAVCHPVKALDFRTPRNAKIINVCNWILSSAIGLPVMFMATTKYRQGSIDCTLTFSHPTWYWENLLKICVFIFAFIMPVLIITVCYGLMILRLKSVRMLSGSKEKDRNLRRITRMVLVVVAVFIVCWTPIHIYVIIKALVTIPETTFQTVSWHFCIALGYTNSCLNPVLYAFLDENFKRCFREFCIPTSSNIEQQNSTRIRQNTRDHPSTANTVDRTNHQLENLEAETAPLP

CC(=O)N1CCN(C[C@@H](C)NC(=O)c2cc3c(-c4ccccc4)nn(C)c3s2)CC1
> 10 µM: IC50 (P2X purinoceptor 2) | IC50 (P2X purinoceptor 4) | IC50 (P2X purinoceptor 7)
> 50%: Activity [1] | Activity [2] | Activity [3] | Activity [4] | Activity (Rattus norvegicus [5]) | Activity [6] | Activity [7] | Activity [8] | Activity [9] | Activity (Rattus norvegicus [10]) | Activity (Rattus norvegicus [11]) | Activity [12] | Activity [13] | Activity [14] | Activity (Rattus norvegicus [15]) | Activity [16] | Activity [17] | Activity [18] | Activity [19] | Activity [20] | Activity [21] | Activity [22] | Activity [24] | Activity [25] | Activity [26] | Activity [27] | Activity [28] | Activity [29]
1.6 h: half-life [23]
